In patent US4864038A, “Antihypercholesterolemic compounds” (Merck & Co., Inc., priority 1988, dated 1989):

Test system: HMG-CoA reductase
Test: HMG-CoA Reductase Inhibition Assay (in vitro, intrinsic inhibitory activity)
Type: biochemical
Conditions: IC50 of test compound compared with compactin determined simultaneously, compactin assigned a value of 100; tested as sodium salt of dihydroxy acid form; rat liver microsomal enzyme
Description: The intrinsic HMG-CoA reductase inhibition activity of the claimed compounds is measured in the in vitro protocol published in J. Med. Chem., 28, p. 347-358 (1985) and described below:
Male Holtzman Sprague-Dawley rats (225-250 g) were kept on reversed lighting and fed Purina rat chow containing 3% cholestryamine for 7 days preceding their sacrifice by CO2 asphyxiation. Livers were removed 6 hours into the dark cycle and used immediately to prepare microsomes. […]
Test compounds or compactin (after first being converted to the sodium salt of their dihydroxy acid form in situ by addition of 1N NaOH (1 equivalent) were added to the assay system in 10-μL volumes at multiconcentration levels. After a 40-minute incubation at 37° C. with shaking and exposure to air, the reaction was stopped by the addition of 0.4 mL of 8N HCl. After an additional 30-minute incubation period at 37° C. to ensure the complete lactonization of mevalonic acid to mevalonolactone, 0.2 ml of the mixture was added to an 0.5×5.0 cm column containing 100-200 mesh Bio-Rex 5, chloride form (Bio-Rad), wetted with distilled water, as described by Alberts et al [J. Proc. Natl. Acad. Sci. U.S.A., 1980, 77, 3957]. […] Five milliliters of Aquasol-2 (New England Nuclear) was added to each vial, and radioactivity was measured in a Packard Tri Carb Prias scintillation counter. […]

Relative Potency	SMILES
156	C[C@H]1C=C2C=C[C@H](C)[C@H](CC[C@@H]3C[C@@H](O)CC(=O)O3)[C@H]2[C@@H](OC(=O)C(C)(C)Sc2ccccc2)C1 [Example 1, 6(R)-[2-[8(S)-[2-Methyl-2-(phenylthio)propionyloxy]-2(S),6(R)-dimethyl-1,2,6,7,8,8a(R)-hexahydronaphthyl-1(S)]ethyl]-4(R)-hydroxy-3,4,5,6-tetrahydro-2H-pyran-2-one]
38	C[C@H]1C=C2C=C[C@H](C)[C@H](CC[C@@H]3C[C@@H](O)CC(=O)O3)[C@H]2[C@@H](OC(=O)C(C)(C)[S+]([O-])c2ccccc2)C1 (stereo partly drawn) [Example 2, 6(R)-[2-[8(S)-[2-Methyl-2-(phenylsulfinyl)propionyloxy]-2(S),6(R)-dimethyl-1,2,6,7,8,8a(R)-hexahydronaphthyl-1(S)]ethyl]-4(R)-hydroxy-3,4,5,,6-tetrahydro-2H-pyran-2-one]
